Test results from patent US12168673B2 (Mitopower, Inc., priority 2022, dated 2024).
Where two headings read alike, the source gives them in different places.

Assays:
[1] = PK study in rats (plasma); type: in vivo; details: for half-life: read-out: T1/2 (converted); for AUC(0-t): read-out: AUC0-1
Huh-7 Cells = experiment: Cellular NAD+ levels in Huh-7 cells (LCMS/MS); type: cell-based; details: 125 μm, four hours of incubation
Experimental: (§1) Huh-7 Cells, sourced from NCCS Pune, were cultured in RPMI media containing FBS & Antibiotics. Cells from different flasks (80-90% confluent) were pooled into a 15 mL conical tube and centrifuged for 5 mins at 1200 rpm for 5 mins. The supernatant solution was discarded, and the pellet was washed with 5 mL sterile PBS (without Ca^2+ and Mg^2+). The tube was then centrifuged at 1200 rpm for 5 mins and the supernatant was discarded. The cell pellet was resuspended in 7 mL of RPMI media, and a cell count was done using 10 uL of the cell solution. 1.5 million cells from the cell solution were seeded into 1.5 mL microcentrifuge tubes. […] The tubes were placed in racks and gently swirled to mix the compounds into the media containing the cells. These tubes were then incubated for 4 hours in a 37° C. incubator at 5% CO2. After 4 hours of incubation the cells were spun down at 1000 rpm for 10 mins, the supernatant was discarded carefully, and cells were snap frozen in liquid nitrogen. When the samples were run, the extraction of the cells was on ice, cells were lysed using 20 uL deionized water and then ice cold 80% methanol containing the internal standard—Rac-Tenofovir D was added. The tubes were then vortexed at 2500 rpm for 8 minutes and then centrifuged at […] for 10 minutes. 150 uL of the supernatant was carefully transferred to HPLC vials and was analyzed for NAD^+ on the Abscised 4000 Q Trap LCMS/MS system. A C18, 3.5 μm, 2.1×100 mm, Bridge Column was used in the LC. The mobile phase consisted of 10 mM ammonium acetate with 0.1% acetic acid & 0.1% hexylamine as Solvent-A and 10 mM Ammonium acetate with 0.1% acetic acid and 0.1% hexylamine in 95/5 MeOH/H2O as Solvent-B. The gradient used was 0 mins-0.0% B, 0.5 mins-100% B, 1.5 mins-100% B, 3.0 mins-100% B, 3.1 mins-0.0% B, 7.0-STOP. The column flow rate was 0.5 mL/min. The sample injection volume was […].

Jurkat Cells = experiment: Cellular NAD+ levels in Jurkat cells (LCMS/MS); type: cell-based; details: 30 μM, four hours of incubation
Experimental: Compounds 100, 101 and 102 were weighted out to prepare 60 μM stock solutions in RPMI media. 200 ng/mL solution of Rac-tenofovir d6 (Vivan Life-Sciences) was prepared in methanol (MeOH) and placed at −20° C. until use.
as §1, with “Jurkat Cells,” for “Huh-7 Cells,”, “flasks (90%” for “flasks (80-90%”, “Ca^2+ &” for “Ca^2+ and”, “acid and” for “acid &”

[2] = Caco-2 permeability assay; details: human
Text: The endpoint measured is the intestinal permeability expressed as apparent permeability—Papp value. All permeability values are represented as ×10^−6 cm/sec.

Kinetic solubility = type: physicochemical; details: aqueous buffer, kinetic from dmso stock, 0.1 M phosphate buffered saline pH 7.4, target 100 μM, 1.5 h
Experimental: The target compound concentration was 100 μM (kinetic), the assay buffer was 0.1 M phosphate buffered saline pH 7.4, the mixing period was 1.5 h (kinetic). The sample was prepared by centrifugation or filtration and the detection method used was HPLC with UV-vis spectrometry.

in vitro = details: human, plasma
Experimental: (§2) The test compounds were weighed and prepared as 10 mM stocks in 100% DMSO. 10 μM is the final test concentration for all compounds.
(§3) The samples were prepared by spiking test compound(s) in plasma at 10 μM final concentration. 200 μL of plasma containing the test compound was added into the donor well (RED Chamber) of the insert. Simultaneously 350 μL of dialysis buffer (1×PBS) was added into the receiver well (white chamber). Two measurements were made for each test compound. The plate was covered with a sealer and incubated at 37° C. degrees on an orbital shaker at 500 rpm for 5 hours.
(§4) After incubation, 25 μl of plasma (RED chamber) and 25 μl of buffer (white chamber) samples were separately collected into separate centrifugation tubes. Plasma and buffer samples were precipitated with 200 μL of 100% acetonitrile containing internal standards. 25 μl of T0 (T Zero) plasma samples (samples before 5 hours incubation) were collected (To samples were processed immediately after the preparation of plasma working stock solution. These samples serve as a measure for calculating the percentage recovery of the test compound and precipitated using 100% acetonitrile containing internal standards). The samples were vortexed at 1000 rpm for 5 min and centrifuged at 4000 rpm for 10 min. The supernatant was diluted 2-fold with water and injected into LC-MS/MS.
(§5) The % of Plasma bound/unbound fraction was calculated by the following equation: % Unbound or % free=100*(Fc/Tc); % Recovery=100 (Fc+Tc)/[…] where Tc=Total compound concentration as determined by the calculated concentration on the plasma side of the membrane (concentration in plasma chamber), Fc=Free compound concentration as determined by the calculated concentration on the buffer side of the membrane (concentration in buffer chamber) and T0=Total compound concentration as determined before dialysis.

Human Plasma Protein = experiment: in vitro
Experimental: as §2, §3, §4, §5

human hepatocytes [3] = details: 1 μM
Experimental: (§8) 10 mM stock solution of test compound was prepared in DMSO and diluted to a concentration of 1 mM with DMSO. Working concentration of 2 μM was prepared by further dilution with PBS. Preincubation mixture of 150 μL of hepatocyte cell suspension (1,000,000 cells/mL, INVITROGRO HT medium buffer), was added to vials for preincubation for 10 min @37° C.
(§9) 150 μL of 2 μM working stock of the test compound was added to the cell suspension and incubated at @37 C at 500 rpm. The reaction was stopped at 0, 15, 30, 60 and 90 min by precipitating 50 μL of the incubation mixture with 150 μL of acetonitrile. Samples were vortexed for 5 min at 1200 rpm and centrifuged at 4000 rpm for 10 min. 150 μL of the supernatant was diluted with 150 μL of water and injected in MS system (SCIEX, API 4500 Q Trap) for analysis.

human hepatocytes [4] = experiment: Human hepatocyte clearance; type: in vitro ADME
Experimental: (§6) A hepatocyte vial was taken out from the liquid nitrogen tank and was thawed in a water bath maintained at 37° C. The thawed cell suspension was transferred into a torsion tube containing 50 mL of thawing media (Xenotech). The thawing media containing hepatocytes was centrifuged at 1000 rpm for 5 min, the supernatant was discarded and the pellet was resuspended in 2 ml of Xenotech OptiIncubate Media. The cells were counted by using a haemocytometer after mixing an aliquot of cell suspension with equal volume of trypan blue. The cell suspension was diluted to a working density of 2 million cells with DMEM media without FBS/incubation media.
(§7) The assay was performed in duplicates (n=2). 150 μL of 2 million cell working stock of hepatocyte cell suspension was added to a 24 well plate and incubated in a 37° C. incubator, with speed of 500 RPM for 10 min. 150 μL of 2 μM working stock of test compound was incubated separately. The reaction at 0, 15, 30, 60 and 90 min was stopped by precipitating 20 μL of incubation mixture with 200 μL of acetonitrile containing internal standard. […] The supernatant was separated and diluted 1:1 with water before injecting in LC-MS/MS analysis.

human hepatocytes [5] = experiment: Human hepatocyte stability
Experimental: as §8, §9

[6] = Human hepatocyte clearance; type: in vitro ADME; details: human hepatocytes, 1 μM
Experimental: as §6, §7

[7] = read-out: Mean Solubility (μg/mL)

For O=C(O)c1cccnc1 [Nicotinic acid], the Cmax ([1]; rat, plasma, iv, 40 mg/kg) was 1240 ± 833 µM, the Tmax ([1]; rat, plasma, iv, 40 mg/kg) was 15 min and the clearance ([1]; rat, plasma, iv, 40 mg/kg) was 5.07 mL/min/kg. It also gave a half-life ([1]; rat, plasma, iv, 40 mg/kg, rats, Group 4: nicotinic acid 40 mg/kg IV) of 26.9 ± 16.6 min, an AUC(0-t) ([1]; rat, plasma, iv, 40 mg/kg) of 1080 ± 426 µM·h and a Vd ([1]; rat, plasma, iv, 40 mg/kg, read-out: Vss) of 0.211 ± 0.156 L/kg. For the same compound, the Cmax ([1]; rat, plasma, po, 200 mg/kg) was 519 ± 83.3 µM, the Tmax ([1]; rat, plasma, po, 200 mg/kg) was 79.8 ± 34.8 min and the bioavailability ([1]; rat, plasma, po, 200 mg/kg) was 29%. For the same compound, the half-life ([1]; rat, plasma, po, 200 mg/kg, rats, Group 3: nicotinic acid 200 mg/kg PO) was 85.2 ± 25.8 min, the AUC(0-t) ([1]; rat, plasma, po, 200 mg/kg) was 1680 ± 305 µM·h and the “IV pharmacokinetics profile (in words)” value ([1]; rats, IV) was “No distribution phase”. For the same compound, the “NAD+ level increase compared to untreated cells” value (Huh-7 Cells) was “showed an increase” and the “NAD+ level increase compared to untreated cells” value (Jurkat Cells) was “showed statistical significance in terms of NAD^+ level increases”.
Compound O=c1[nH]c2ccccc2n1CCCN1CCC(n2c(=O)[nH]c3cc(Cl)ccc32)CC1 [Domperidone, reference compound] has a Papp A→B [2] of 3.9 ×10⁻⁶ cm/s, a Papp B→A [2] of 20.3 ×10⁻⁶ cm/s and an efflux ratio [2] of 5.2. The recovery ([2]; Caco-2, % Recovery A to B) was 61.8% and the recovery ([2]; Caco-2, % Recovery B to A) was 76.4%.
With CCCSc1ccc2nc(NC(=O)OC)[nH]c2c1 [Albendazole, reference compound] the solubility at 1.5 h (Kinetic solubility; read-out: Mean Solubility) was 0.66 µM and the solubility at 1.5 h (Kinetic solubility; [7]) was 0.2 µg/mL.
CC(=O)CC(c1ccccc1)c1c(O)c2ccccc2oc1=O (stereo not shown) [Warfarin, reference compound] gave a fraction unbound at 5 h, 10 μM (in vitro; % Bound in plasma) of 0.0044, a fraction unbound at 5 h, 10 μM (in vitro; % Unbound in plasma) of 0.0054 and a fraction unbound at 5 h, 10 μM (in vitro; Fraction unbound) of 0.005. For the same compound, the “Remarks (binding class)” value (Human Plasma Protein) was “High binding”, the “% Parent Remaining” value (human hepatocytes [3]; 0 h) was 100% and the “% Parent Remaining” value (human hepatocytes [3]; 0.25 h) was 91%. The “% Parent Remaining” value (human hepatocytes [3]; 0.5 h) was 89%, the “% Parent Remaining” value (human hepatocytes [3]; 1 h) was 96% and the “% Parent Remaining” value (human hepatocytes [3]; 1.5 h) was 96%. For the same compound, the “Remarks (clearance class)” value (human hepatocytes [4]) was “Low*”.
With C[C@]12CC[C@H]3[C@@H](CCC4=CC(=O)CC[C@@]43C)[C@@H]1CC[C@@H]2O [Testosterone, reference compound] the “% Parent Remaining” value (human hepatocytes [5]; 0 mins) was 100%, the “% Parent Remaining” value (human hepatocytes [5]; 15 mins) was 28% and the “% Parent Remaining” value (human hepatocytes [5]; 30 mins) was 11%. For the same compound, the “% Parent Remaining” value (human hepatocytes [5]; 60 mins) was 3%, the “% Parent Remaining” value (human hepatocytes [5]; 90 mins) was 1% and the “Remarks (clearance class)” value (human hepatocytes [4]) was “High*”. For the same compound, the half-life at 1 μM ([6]; 0-90 min, read-out: T½) was 9.14 min and the hepatocyte CLint at 1 μM ([6]; read-out: Intrinsic Clearance (CL Int)) was 75.8 µL/min/1e6 cells.
NC(=O)N1c2ccccc2C=Cc2ccccc21 [Carbamazepine, reference compound] showed a Papp A→B [2] of 22.2 ×10⁻⁶ cm/s, a Papp B→A [2] of 23.4 ×10⁻⁶ cm/s and an efflux ratio [2] of 1.1. For the same compound, the recovery ([2]; Caco-2, % Recovery A to B) was 89.3% and the recovery ([2]; Caco-2, % Recovery B to A) was 91%.
Work on CC(C(=O)O)c1ccc(-c2ccccc2)c(F)c1 (stereo not shown) [Flurbiprofen, reference compound] yielded a solubility at 1.5 h (Kinetic solubility; read-out: Mean Solubility) of 111 µM and a solubility at 1.5 h (Kinetic solubility; [7]) of 27 µg/mL.
